Assay [1] addresses T1, TogB (Yersinia enterocolitica, UniProt A0ACH1C7V4, D363C).
T1 construct: gene yesO; TogB without signal secretion peptide, D363C conjugated to MDCC
T1 sequence (A0ACH1C7V4 27-430 D363C): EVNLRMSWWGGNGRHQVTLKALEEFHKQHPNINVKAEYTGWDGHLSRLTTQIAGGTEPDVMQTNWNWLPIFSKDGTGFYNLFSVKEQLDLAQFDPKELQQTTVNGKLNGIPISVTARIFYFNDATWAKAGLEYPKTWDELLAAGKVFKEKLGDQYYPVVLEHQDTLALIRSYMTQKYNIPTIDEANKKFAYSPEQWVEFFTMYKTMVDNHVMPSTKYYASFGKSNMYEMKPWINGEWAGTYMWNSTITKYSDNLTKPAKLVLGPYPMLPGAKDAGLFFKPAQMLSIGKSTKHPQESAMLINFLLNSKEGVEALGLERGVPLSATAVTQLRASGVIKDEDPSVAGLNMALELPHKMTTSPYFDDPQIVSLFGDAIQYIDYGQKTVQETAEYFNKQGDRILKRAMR
In words: equilibrium fluorescence change of MDCC-labelled purified protein at […] ligand (n = […]). It is filed as binding.

The target of assay [2] is T1, TogB. In words: stopped-flow fluorescence titration of MDCC-labelled purified protein. It counts as binding.

Each structure is given as a SMILES string.

For the compound `O=C(O)[C@H]1O[C@H](O[C@@H]2[C@H](O)[C@@H](O)[C@@H](O[C@@H]3[C@H](O)[C@@H](O)C(O)O[C@@H]3C(=O)O)O[C@@H]2C(=O)O)[C@H](O)[C@@H](O)[C@H]1O` (stereo partly drawn) [trigalUA, trigalacturonic acid], the fluorescence change in assay [1] is given as −44%.
As to `O=C(O)[C@H]1O[C@H](O[C@@H]2[C@H](O)[C@@H](O)C(O)O[C@@H]2C(=O)O)[C@H](O)[C@@H](O)[C@H]1O` (stereo partly drawn) [digalUA, digalacturonic acid], the Kd in assay [2] turned out to be 6 ± 1 µM.
Still for that read-out and setting: next, `O=C(O)C1=C[C@H](O)[C@@H](O)[C@@H](O[C@@H]2[C@H](O)[C@@H](O)C(O)O[C@@H]2C(=O)O)O1` (stereo partly drawn) [unsatdigalUA, 4,5-unsaturated digalacturonic acid]: 1.3 ± 0.5 µM.

By Kd is commonly meant the equilibrium constant for the complex coming apart.

(Values after paper PMC8839585, “Development of a Real-Time Pectic Oligosaccharide-Detecting Biosensor Using the Rapid and Flexible Computational Identification of Non-Disruptive Conjugation Sites (CINC) Biosensor Design Platform” (Sensors (Basel, Switzerland), 2022).)
